According to US8637499B2, “Benzoxazepines as inhibitors of PI3K/mTOR and methods of their use and manufacture” (Exelixis, Inc., priority 2009, dated 2014):

How the values were obtained:
[1] = target: PI3Kα (Homo sapiens, UniProt P42336); experiment: PI3K Biochemical Assays (ATP consumption, luciferase-luciferin chemiluminescence); conditions: PI3Kα 1.5 nM, ATP 1 μM, PIP2 10 μM; percent of ATP consumed
Procedure, shortened: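 Enzyme (1.5 nM), PIP2 substrate (10 μM) and ATP (1 μM) react about 2 h at room temperature in Tris buffer pH 7.5 with MgCl2, EGTA, DTT and CHAPS. Remaining ATP detected by Kinase-Glo luminescence; total consumption limited to 40-60%.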

[2] = target: mTORC1 (mTOR/GbL/Raptor) (Homo sapiens, UniProt P42345); experiment: mTOR/GbL/Raptor (mTORC1) ELISA Assay; assay type: biochemical; conditions: 0.2 nM mTORC1, 10 μM ATP, 50 nM NHis-tagged 4E-BP1; phosphorylation of 4E-BP1; read-out: IC50
Procedure, shortened: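 Detection used Ni-chelate capture of His-tagged 4E-BP1, then anti-phospho-4E-BP1 and HRP anti-IgG with luminescent ELISA substrate. Reactions ran 120 min at ambient temperature with 0.2 nM mTORC1, 10 μM ATP, 50 nM 4E-BP1, 10 mM MnCl2, pH 7.2 Hepes.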

Chain of PI3Kα (P42336 whole entry): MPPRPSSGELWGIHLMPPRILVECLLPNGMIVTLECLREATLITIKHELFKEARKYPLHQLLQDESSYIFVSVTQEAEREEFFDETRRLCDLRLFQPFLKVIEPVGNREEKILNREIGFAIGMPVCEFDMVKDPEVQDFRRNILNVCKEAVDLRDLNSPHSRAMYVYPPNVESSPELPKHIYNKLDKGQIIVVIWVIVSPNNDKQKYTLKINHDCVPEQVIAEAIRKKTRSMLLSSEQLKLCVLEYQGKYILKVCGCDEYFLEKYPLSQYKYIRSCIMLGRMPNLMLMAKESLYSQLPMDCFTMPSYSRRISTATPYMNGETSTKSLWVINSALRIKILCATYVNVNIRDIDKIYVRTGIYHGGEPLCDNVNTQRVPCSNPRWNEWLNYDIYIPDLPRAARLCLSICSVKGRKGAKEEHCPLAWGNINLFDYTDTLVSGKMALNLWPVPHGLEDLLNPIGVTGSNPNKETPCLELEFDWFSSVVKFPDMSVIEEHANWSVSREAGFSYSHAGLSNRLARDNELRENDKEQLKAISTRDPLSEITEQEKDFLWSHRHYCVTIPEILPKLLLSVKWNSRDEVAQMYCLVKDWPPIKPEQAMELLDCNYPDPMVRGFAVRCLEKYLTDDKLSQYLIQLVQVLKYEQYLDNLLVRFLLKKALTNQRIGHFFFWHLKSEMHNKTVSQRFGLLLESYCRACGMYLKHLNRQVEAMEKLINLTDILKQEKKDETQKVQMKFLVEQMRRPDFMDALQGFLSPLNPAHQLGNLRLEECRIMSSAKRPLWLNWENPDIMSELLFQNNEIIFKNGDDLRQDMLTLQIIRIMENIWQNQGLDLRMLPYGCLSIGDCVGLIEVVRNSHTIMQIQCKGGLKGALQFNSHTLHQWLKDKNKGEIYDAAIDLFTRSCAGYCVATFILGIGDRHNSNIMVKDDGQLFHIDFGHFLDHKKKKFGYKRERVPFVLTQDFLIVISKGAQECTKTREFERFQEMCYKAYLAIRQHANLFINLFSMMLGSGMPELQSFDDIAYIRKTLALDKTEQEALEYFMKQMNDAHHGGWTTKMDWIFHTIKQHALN
Chain of PI3Kα (P27986 whole entry partner): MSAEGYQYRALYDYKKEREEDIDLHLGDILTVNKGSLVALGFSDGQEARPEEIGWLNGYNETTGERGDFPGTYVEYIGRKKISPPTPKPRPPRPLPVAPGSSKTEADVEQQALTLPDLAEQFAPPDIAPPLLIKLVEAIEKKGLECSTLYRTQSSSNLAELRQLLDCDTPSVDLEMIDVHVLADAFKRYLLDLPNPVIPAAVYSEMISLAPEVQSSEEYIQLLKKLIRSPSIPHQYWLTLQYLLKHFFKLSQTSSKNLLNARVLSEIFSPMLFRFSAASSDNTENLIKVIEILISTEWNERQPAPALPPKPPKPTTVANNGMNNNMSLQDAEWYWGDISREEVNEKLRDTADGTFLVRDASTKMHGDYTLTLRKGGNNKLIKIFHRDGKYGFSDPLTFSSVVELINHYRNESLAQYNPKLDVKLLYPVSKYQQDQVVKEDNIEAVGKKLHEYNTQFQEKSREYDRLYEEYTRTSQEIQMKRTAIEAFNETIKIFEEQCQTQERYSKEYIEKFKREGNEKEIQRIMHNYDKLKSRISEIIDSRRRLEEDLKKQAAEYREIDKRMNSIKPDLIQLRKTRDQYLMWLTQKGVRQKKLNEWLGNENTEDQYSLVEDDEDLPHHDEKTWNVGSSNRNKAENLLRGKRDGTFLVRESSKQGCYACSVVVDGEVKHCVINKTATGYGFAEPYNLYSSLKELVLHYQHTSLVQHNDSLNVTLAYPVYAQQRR

| SMILES | IC50 [1] [µM] | IC50 [2] [µM] |
| --- | --- | --- |
| O=C1CCN(C(=O)N2CCOc3ccc(-c4ccc5[nH]c(NCC(F)(F)F)nc5c4)cc3C2)C(c2cccc(F)c2)C1 (stereo not shown) [Compound 31, 2-(3-fluorophenyl)-1-{[7-{2-[(2,2,2-trifluoroethyl)amino]-1H-benzimidazol-5-yl}-2,3-dihydro-1,4-benzoxazepin-4(5H)-yl]carbonyl}piperidin-4-one] | 0.2 to 0.5 | ≤ 0.05 |
| O=C1CCN(C(=O)N2CCOc3ccc(-c4ccc5[nH]c(NCCF)nc5c4)cc3C2)C(c2cccc(F)c2)C1 (stereo not shown) [Compound 32, 1-{[7-{2-[(2-fluoroethyl)amino]-1H-benzimidazol-5-yl}-2,3-dihydro-1,4-benzoxazepin-4(5H)-yl]carbonyl}-2-(3-fluorophenyl)piperidin-4-one] | ≤ 0.075 | ≤ 0.05 |
| CCNc1nc2ccc(-c3ccc4c(c3)CN(C(=O)N3CCC(C(C)(F)F)CC3)CCO4)cc2[nH]1 [Compound 33, 6-(4-{[4-(1,1-difluoroethyl)piperidin-1-yl]carbonyl}-2,3,4,5-tetrahydro-1,4-benzoxazepin-7-yl)-N-ethyl-1H-benzimidazol-2-amine] | 0.2 to 0.5 | ≤ 0.05 |
| COC(=O)Nc1nc2ncc(-c3ccc4c(c3)CN(C(=O)N3CCC(C(C)(F)F)CC3)CCO4)cc2[nH]1 [Compound 34, methyl [6-(4-{[4-(1,1-difluoroethyl)piperidin-1-yl]carbonyl}-2,3,4,5-tetrahydro-1,4-benzoxazepin-7-yl)-1H-imidazo[4,5-b]pyridin-2-yl]carbamate] | ≤ 0.075 | ≤ 0.05 |
| COC(=O)Nc1nc2ncc(-c3ccc4c(c3)CN(C(=O)N3CCC(CCF)CC3)CCO4)cc2[nH]1 [Compound 35, methyl [6-(4-{[4-(2-fluoroethyl)piperidin-1-yl]carbonyl}-2,3,4,5-tetrahydro-1,4-benzoxazepin-7-yl)-1H-imidazo[4,5-b]pyridin-2-yl]carbamate] | ≤ 0.075 | ≤ 0.05 |
| COC(=O)Nc1nc2ncc(-c3ccc4c(c3)CN(C(=O)N3CCC(CF)CC3)CCO4)cc2[nH]1 [Compound 36, methyl [6-(4-{[4-(fluoromethyl)piperidin-1-yl]carbonyl}-2,3,4,5-tetrahydro-1,4-benzoxazepin-7-yl)-1H-imidazo[4,5-b]pyridin-2-yl]carbamate] | ≤ 0.075 | ≤ 0.05 |
| COC(=O)Nc1nc2ncc(-c3ccc4c(c3)CN(C(=O)N3CCC(=O)CC3c3ccc(F)cc3)CCO4)cc2[nH]1 (stereo not shown) [Compound 37, methyl [6-(4-{[2-(4-fluorophenyl)-4-oxopiperidin-1-yl]carbonyl}-2,3,4,5-tetrahydro-1,4-benzoxazepin-7-yl)-1H-imidazo[4,5-b]pyridin-2-yl]carbamate] | ≤ 0.075 | 0.05 to 0.25 |
| COC(=O)Nc1nc2ncc(-c3ccc4c(c3)CN(C(=O)N3CCC(O)(CF)CC3)CCO4)cc2[nH]1 [Compound 38, methyl [6-(4-{[4-(fluoromethyl)-4-hydroxypiperidin-1-yl]carbonyl}-2,3,4,5-tetrahydro-1,4-benzoxazepin-7-yl)-1H-imidazo[4,5-b]pyridin-2-yl]carbamate] | 0.075 to 0.2 | 0.05 to 0.25 |
| COC(=O)Nc1nc2ncc(-c3ccc4c(c3)CN(C(=O)N3CCC(=O)CC3c3ccc(F)c(F)c3)CCO4)cc2[nH]1 (stereo not shown) [Compound 39, methyl [6-(4-{[2-(3,4-difluorophenyl)-4-oxopiperidin-1-yl]carbonyl}-2,3,4,5-tetrahydro-1,4-benzoxazepin-7-yl)-1H-imidazo[4,5-b]pyridin-2-yl]carbamate] | ≤ 0.075 | 0.05 to 0.25 |
| COC(=O)Nc1nc2ncc(-c3ccc4c(c3)CN(C(=O)N3CCC(C#N)CC3)CCO4)cc2[nH]1 [Compound 40, methyl (6-{4-[(4-cyanopiperidin-1-yl)carbonyl]-2,3,4,5-tetrahydro-1,4-benzoxazepin-7-yl}-1H-imidazo[4,5-b]pyridin-2-yl)carbamate] | 0.2 to 0.5 | 0.05 to 0.25 |
| COC(=O)Nc1nc2ncc(-c3ccc4c(c3)CN(C(=O)N3CCC(C)CC3)CCO4)cc2[nH]1 [Compound 41, methyl (6-{4-[(4-methylpiperidin-1-yl)carbonyl]-2,3,4,5-tetrahydro-1,4-benzoxazepin-7-yl}-1H-imidazo[4,5-b]pyridin-2-yl)carbamate] | ≤ 0.075 | ≤ 0.05 |
| CC(F)(F)C1CCN(C(=O)N2CCOc3ccc(-c4cnc5nc(N)[nH]c5c4)cc3C2)CC1 [Compound 42, 6-(4-{[4-(1,1-difluoroethyl)piperidin-1-yl]carbonyl}-2,3,4,5-tetrahydro-1,4-benzoxazepin-7-yl)-1H-imidazo[4,5-b]pyridin-2-amine] | ≤ 0.075 | ≤ 0.05 |
| Nc1nc2ncc(-c3ccc4c(c3)CN(C(=O)N3CCC(C(F)F)CC3)CCO4)cc2[nH]1 [Compound 43, 6-(4-{[4-(difluoromethyl)piperidin-1-yl]carbonyl}-2,3,4,5-tetrahydro-1,4-benzoxazepin-7-yl)-1H-imidazo[4,5-b]pyridin-2-amine] | 0.075 to 0.2 | ≤ 0.05 |
| Nc1nc2ncc(-c3ccc4c(c3)CN(C(=O)N3CCC(CCF)CC3)CCO4)cc2[nH]1 [Compound 44, 6-(4-{[4-(2-fluoroethyl)piperidin-1-yl]carbonyl}-2,3,4,5-tetrahydro-1,4-benzoxazepin-7-yl)-1H-imidazo[4,5-b]pyridin-2-amine] | ≤ 0.075 | ≤ 0.05 |
| Nc1nc2ncc(-c3ccc4c(c3)CN(C(=O)N3CCC(CF)CC3)CCO4)cc2[nH]1 [Compound 45, 6-(4-{[4-(fluoromethyl)piperidin-1-yl]carbonyl}-2,3,4,5-tetrahydro-1,4-benzoxazepin-7-yl)-1H-imidazo[4,5-b]pyridin-2-amine] | ≤ 0.075 | ≤ 0.05 |
| N#CC1CCN(C(=O)N2CCOc3ccc(-c4cnc5nc(N)[nH]c5c4)cc3C2)CC1 [Compound 46, 1-{[7-(2-amino-1H-imidazo[4,5-b]pyridin-6-yl)-2,3-dihydro-1,4-benzoxazepin-4(5H)-yl]carbonyl}piperidine-4-carbonitrile] | ≤ 0.075 | ≤ 0.05 |
| NC(=O)C1CCN(C(=O)N2CCOc3ccc(-c4cnc5nc(N)[nH]c5c4)cc3C2)CC1 [Compound 47, 1-{[7-(2-amino-1H-imidazo[4,5-b]pyridin-6-yl)-2,3-dihydro-1,4-benzoxazepin-4(5H)-yl]carbonyl}piperidine-4-carboxamide] | ≤ 0.075 | ≤ 0.05 |
| Nc1nc2ncc(-c3ccc4c(c3)CN(C(=O)N3CCC(=O)CC3c3cccc(F)c3)CCO4)cc2[nH]1 (stereo not shown) [Compound 48, 1-{[7-(2-amino-1H-imidazo[4,5-b]pyridin-6-yl)-2,3-dihydro-1,4-benzoxazepin-4(5H)-yl]carbonyl}-2-(3-fluorophenyl)piperidin-4-one] | ≤ 0.075 | ≤ 0.05 |
| Nc1nc2ncc(-c3ccc4c(c3)CN(C(=O)N3[C@@H]5CC[C@H]3C[C@](O)(C(F)(F)F)C5)CCO4)cc2[nH]1 [Compound 49, 8-{[7-(2-amino-1H-imidazo[4,5-b]pyridin-6-yl)-2,3-dihydro-1,4-benzoxazepin-4(5H)-yl]carbonyl}-3-(trifluoromethyl)-8-azabicyclo[3.2.1]octan-3-(endo)-ol] | ≤ 0.075 | ≤ 0.05 |
| CC(=O)Nc1nc2ccc(-c3ccc4c(c3)CN(C(=O)N3CCC(CF)CC3)CCO4)cc2[nH]1 [Compound 50, N-[5-(4-{[4-(fluoromethyl)piperidin-1-yl]carbonyl}-2,3,4,5-tetrahydro-1,4-benzoxazepin-7-yl)-1H-benzimidazol-2-yl]acetamide] | 0.5 to 1 | 0.25 to 0.7 |
| Cc1nc2cc(-c3ccc4c(c3)CN(C(=O)N3CCC(=O)CC3c3cccc(F)c3)CCO4)cnc2[nH]1 (stereo not shown) [Compound 51, 2-(3-fluorophenyl)-1-{[7-(2-methyl-3H-imidazo[4,5-b]pyridin-6-yl)-2,3-dihydro-1,4-benzoxazepin-4(5H)-yl]carbonyl}piperidin-4-one] | 0.2 to 0.5 | 0.05 to 0.25 |
| O=C1CCN(C(=O)N2CCOc3ccc(-c4cnc5[nH]cnc5c4)cc3C2)C(c2cccc(F)c2)C1 (stereo not shown) [Compound 52, 2-(3-fluorophenyl)-1-{[7-(3H-imidazo[4,5-b]pyridin-6-yl)-2,3-dihydro-1,4-benzoxazepin-4(5H)-yl]carbonyl}piperidin-4-one] | 0.2 to 0.5 | 0.05 to 0.25 |
| O=C1CCN(C(=O)N2CCOc3ccc(-c4ccc(-c5ncc[nH]5)cc4)cc3C2)C(c2ccc(F)c(F)c2)C1 (stereo not shown) [Compound 53, 2-(3,4-difluorophenyl)-1-({7-[4-(1H-imidazol-2-yl)phenyl]-2,3-dihydro-1,4-benzoxazepin-4(5H)-yl}carbonyl)piperidin-4-one] | ≤ 0.075 | ≤ 0.05 |
| O=C1CCN(C(=O)N2CCOc3ccc(-c4ccc(-c5ncc[nH]5)cc4)cc3C2)C(c2ccc(F)cc2)C1 (stereo not shown) [Compound 54, 2-(4-fluorophenyl)-1-({7-[4-(1H-imidazol-2-yl)phenyl]-2,3-dihydro-1,4-benzoxazepin-4(5H)-yl}carbonyl)piperidin-4-one] | ≤ 0.075 | ≤ 0.05 |
| O=C1CCN(C(=O)N2CCOc3ccc(-c4ccc(-c5ncc[nH]5)cc4)cc3C2)C(c2cccc(F)c2)C1 (stereo not shown) [Compound 55, 2-(3-fluorophenyl)-1-({7-[4-(1H-imidazol-2-yl)phenyl]-2,3-dihydro-1,4-benzoxazepin-4(5H)-yl}carbonyl)piperidin-4-one] | ≤ 0.075 | ≤ 0.05 |
| O=C1CCN(C(=O)N2CCOc3ccc(-c4ccc(-c5ncc[nH]5)cc4)cc3C2)[C@@H](c2ccc(F)cc2)C1 [Compound 56, (2R)-2-(4-fluorophenyl)-1-({7-[4-(1H-imidazol-2-yl)phenyl]-2,3-dihydro-1,4-benzoxazepin-4(5H)-yl}carbonyl)piperidin-4-one] | ≤ 0.075 | ≤ 0.05 |
